Experimental data as given in ChEMBL document CHEMBL1148727, “Discovery of 1,4-dihydroxy-2-naphthoate [corrected] prenyltransferase inhibitors: new drug leads for multidrug-resistant gram-positive pathogens” (2007).
Converted amounts (≈) assume the structure as drawn.

Key:
Format in all cases: functional
[1] = test system: Mycobacterium tuberculosis variant bovis BCG; assay: Antibacterial activity against Mycobacterium bovis BCG Tokyo after 18 hrs by agar plate dilution method
[2] = test system: Mycobacterium tuberculosis; assay: Antibacterial activity against rifampicin-resistant Mycobacterium tuberculosis H37Rv after 18 hrs by agar plate dilution method
[3] = test system: Mycobacterium tuberculosis; assay: Antibacterial activity against isoniazid-resistant Mycobacterium tuberculosis H37Rv after 18 hrs by agar plate dilution method

Row | SMILES | MIC [1] [µg/mL] | MIC [2] [µg/mL] | MIC [3] [µg/mL]
1 | C=CCN(C)CCCCCCCCOc1ccc(C(=O)c2ccc(Cl)cc2)c(O)c1 | 3.1 (≈ 7.21 µM) | 1.5 (≈ 3.49 µM) | 1.5 (≈ 3.49 µM)
2 | NNC(=O)c1ccncc1 [ISONIAZID] | 0.1 (≈ 0.729 µM) | 0.05 (≈ 0.365 µM) | > 25
3 | CO[C@H]1/C=C/O[C@@]2(C)Oc3c(C)c(O)c4c(O)c(c(/C=N/N5CCN(C)CC5)c(O)c4c3C2=O)NC(=O)/C(C)=C\C=C\[C@H](C)[C@H](O)[C@@H](C)[C@@H](O)[C@@H](C)[C@H](OC(C)=O)[C@@H]1C [RIFAMPIN] | 0.1 (≈ 0.122 µM) | > 25 | 0.2 (≈ 0.243 µM)
